Experimental data reported in patent US20220016251A1, “LYMPHATIC MEDIATED TRANSPORT-BASED TRIGLYCERIDE PRODRUG, AND PREPARATION METHOD THEREFOR” (SHENYANG PHARMACEUTICAL UNIVERSITY, priority 2019, published 2022).
≈ marks a conversion by molar mass, not a printed value. Read-outs that look alike come from different tables or passages of the source.

Legend:
[1] = test system: KB cells; assay: cells; format: cell-based; conditions: Homo sapiens
From the text: (§1) In order to investigate the tumor reduction-sensitive release of DTX-S-S-TG, 4T1 cells and KB cells are used as models to investigate the cytotoxicity of DTX-5C-TG, a DTX-S-S-TG emulsion and a docetaxel solution. […] Due to a reduction-sensitive dithio linking bridge, DTX-S-S-TG has higher drug release efficiency than DTX-5C-TG, which is linked by insensitive ester bonds. As a result, the cytotoxicity of DTX-S-S-TG is stronger than that of DTX-5C-TG. Meanwhile, due to the slow release of a sensitive prodrug, DTX-S-S-TG has lower cytotoxicity than the docetaxel solution.

[2] = test system: 4T1 cells; assay: cells; format: cell-based; conditions: Mus musculus
From the text: as §1

[3] = in vivo
Description: Taking SD rats as a model, a docetaxel-triglyceride prodrug emulsion and a docetaxel solution are orally administered; a plasma concentration of a parent drug is measured; and a drug-time curve is drawn and corresponding pharmacokinetic parameters are calculated respectively based on the measured concentration (Table 2). In order to calculate the absolute bioavailability, a docetaxel solution is administered intravenously, and the content of docetaxel in the plasma is measured.
In addition, in order to investigate whether the docetaxel-triglyceride prodrug is transported through the lymphatics, one hour before oral administration of the DTX-S-S-TG and the docetaxel solution, […] is administered intraperitoneally to inhibit the release of chylomicrons. The effect of lymphatic transport on the absorption of the prodrug is investigated.

[4] = In vivo intestinal perfusion in rats
From the text: The intestinal permeability of a docetaxel-triglyceride prodrug is investigated by in vivo intestinal perfusion in rats. […] In order to investigate the effect of intestinal pancreatic lipase digestion on the absorption of the prodrug, a pancreatic lipase inhibitor orlistat is administrated half an hour in advance.

[5] = mouse, in vivo
[6] = test system: 4T1 tumor; format: in vivo; conditions: oral, 4T1 tumor-bearing Balb/c mice
From the text: It reminds us that a good pharmacodynamic result not only requires a significant pharmacokinetic result, but also that a specific release at a tumor site is very important.

[7] = Stability in lipoprotein lipase-containing plasma; format: in vitro ADME; conditions: plasma added with lipoprotein lipase, after continuous incubation
Description: (§2) Emulsions prepared in Example 5 are incubated in simulated gastric juice, bile-pancreatic juice simulated intestinal juice, and lipoprotein lipase-containing plasma at 37° C., respectively; and samples are taken at predetermined time points to investigate the physical stability of the prodrug emulsion and the chemical stability of the prodrug in different media.

[8] = test system: pancreatic lipase; assay: Digestion in bile-pancreatic juice simulated intestinal juice; format: in vitro ADME; conditions: 37° C.
Description: as §2

oral bioavailability improved versus docetaxel ([3]; rat, in vivo, po) | Compound | IC50 ([1]; 48 h, read-out: IC50 KB 48 h) | IC50 ([1]; 72 h, read-out: IC50 KB 72 h) | IC50 ([2]; 48 h, read-out: IC50 4T1 48 h) | IC50 ([2]; 72 h, read-out: IC50 4T1 72 h) | Fabs ([3]; SD, rat, in vivo) | AUC(0-t) ([3]; SD, rat, in vivo, po) | Cmax ([3]; SD, rat, in vivo, po) | Frel ([3]; SD, rat, in vivo, po) | Tmax ([3]; SD, rat, in vivo, po) | half-life ([3]; SD, rat, in vivo, po) | effect of cyclophosphamide (lymphatic suppression) on oral absorption / AUC ([3]; rat, in vivo) | effect of pancreatic lipase inhibitor orlistat on absorption ([4]; rat, in vivo) | gastrointestinal toxicity (injury to intestinal segments) ([5]; iv) | gastrointestinal toxicity (injury to intestinal segments) ([5]; po) | anti-tumor effect [6] | release of docetaxel parent drug in plasma [7] | degradation into docetaxel-monoglyceride prodrugs in intestinal juice [8] | blood concentration ([3]; oral, SD rats) | permeability coefficient Ka, increase compared with docetaxel solution ([4]; in vivo intestinal perfusion in rats)
 | CC(=O)O[C@@]12CO[C@@H]1C[C@H](O)[C@@]1(C)C(=O)[C@H](O)C3=C(C)[C@@H](OC(=O)[C@H](O)[C@@H](NC(=O)OC(C)(C)C)c4ccccc4)C[C@@](O)([C@@H](OC(=O)c4ccccc4)[C@H]21)C3(C)C [DTX Solution, docetaxel] | 4.9 ng/mL (≈ 6.07 nM) | 1.3 ng/mL (≈ 1.61 nM) | 16.6 ng/mL (≈ 20.5 nM) | 5.9 ng/mL (≈ 7.3 nM) | 9.4% | 168 ± 125 ng·h/mL | 21 ± 6.8 ng/mL | 100% | 0.4 ± 0.5 h | 11.8 ± 8.4 h | no significant difference in AUC | no significant effect | injury to respective intestinal segments | slight injury to the jejunum | almost no anti-tumor effect |  |  |  | 
 | CCCCCCCCCCCCCCCC(=O)OCC(COC(=O)CCCCCCCCCCCCCCC)OC(=O)C(CCC(=O)O[C@@H](C(=O)O[C@H]1C[C@@]2(O)[C@@H](OC(=O)c3ccccc3)[C@@H]3[C@]4(OC(C)=O)CO[C@@H]4C[C@H](O)[C@@]3(C)C(=O)[C@H](O)C(=C1C)C2(C)C)[C@@H](NC(=O)OC(C)(C)C)c1ccccc1)OC(=O)C(C)(C)C (some centres unmarked) [DTX-5C(Piv)-TG, Docetaxel-C5(Piv)-Triglyceride Prodrug] |  |  |  |  |  |  |  |  |  |  |  |  |  |  |  | hardly releases the docetaxel parent drug | relatively slow degradation rate | lower than a detection limit | 1.15 times
1.05-4.71 times | Docetaxel-C5(Et)-Triglyceride Prodrug [DTX-5C(Et)-TG] |  |  |  |  |  |  |  |  |  |  |  |  |  |  | certain anti-tumor effect | release the drug slowly | relatively slow degradation rate |  | 
